The text below walks through data of paper PMC2116235 (The Journal of Cell Biology, 1990).

The subject of assay [1] is adhesion of bovine aortic endothelial cells to NC1 domain. The assay is described as follows: Competition of endothelial cell binding to NC1 domain by peptides. The format is cell-based.
Assay [2] has as its system bovine aortic endothelial cells. The assay is described as follows: Cell spreading assay. Format: cell-based. To be noted: 37C.
For assay [3] the following is noted: cited from earlier work.
Assay [4] has as its system murine melanoma cells. Put plainly: Adhesion of murine melanoma cells. The conditions noted are these: preliminary observations. Format: cell-based.
In assay [5] the target is T1, type IV collagen (Mus musculus, UniProt P02463+P08122). The assay is described as follows: Solid phase binding of 125I-peptides to type IV collagen. More on the design: species or system murine (EHS tumor). The conditions noted are these: 37C, 2 h; for Competition of bound 125I-peptide by unlabeled corresponding peptide: 5 µg 125I-peptide, unlabeled peptide up to 400-fold excess (2 mg/ml).

Assay [6] concerns microvascular endothelial cells. The assay is described as follows: Adhesion of microvascular endothelial cells. The format is cell-based. To be noted: preliminary observations.
Assay [7] has as its system bovine aortic endothelial cells. Put plainly: Binding of 125I-Hep-I to endothelial cells in solution, direct and competition. The conditions noted are these: 5 µg 125I-Hep-I; unlabeled peptide up to 400-fold excess, 4C, 20 min.
Assay [8] deals with adhesion of bovine aortic endothelial cells to type IV collagen. The assay is described as follows: Competition of endothelial cell binding to type IV collagen by peptides. The conditions noted are these: ~5 µg (100 µg/ml) peptide; type IV collagen coated at 10 µg/ml; 60 min at 37C. Format: cell-based.
In assay [9] the test system is BSA. Put plainly: Nonspecific binding of peptide to BSA-coated plastic. To be noted: BSA coated onto plastic; all concentrations used; data not shown.
Assay [10] concerns type IV collagen. To be noted: cited from earlier work.
For assay [11], the system named is adhesion of bovine aortic endothelial cells to type IV collagen. The format is cell-based. To be noted: type IV collagen 1-60 µg/ml; glycosaminoglycan up to 10 mg/ml; 60 min at 37C.
For assay [12], the target named is intact type IV collagen (EHS tumor) (mouse (endogenous in the EHS tumor)). Put plainly: rotary shadowing electron microscopy.
For assay [13], the target named is T1, type IV collagen. The assay is described as follows: Turbidity of type IV collagen assembly. To be noted: peptide 100 µg/ml with type IV collagen-NC1 domain mixtures, 37C, 360 nm. Format: biochemical, murine (EHS tumor).
Assay [14] concerns bovine aortic endothelial cells. The conditions noted are these: as compared to fibronectin or laminin; cited from earlier work.
Assay [15] has the same test system. The assay is described as follows: Direct solid phase cell-binding. Format: cell-based. To be noted: 35S-labeled cells, 37C, 30-60 min.
[16] abbreviates: 30 min, substrate type IV collagen 10 µg/ml or peptide Hep-I 20 µg/ml.

T1 sequence (P02463 173-1669): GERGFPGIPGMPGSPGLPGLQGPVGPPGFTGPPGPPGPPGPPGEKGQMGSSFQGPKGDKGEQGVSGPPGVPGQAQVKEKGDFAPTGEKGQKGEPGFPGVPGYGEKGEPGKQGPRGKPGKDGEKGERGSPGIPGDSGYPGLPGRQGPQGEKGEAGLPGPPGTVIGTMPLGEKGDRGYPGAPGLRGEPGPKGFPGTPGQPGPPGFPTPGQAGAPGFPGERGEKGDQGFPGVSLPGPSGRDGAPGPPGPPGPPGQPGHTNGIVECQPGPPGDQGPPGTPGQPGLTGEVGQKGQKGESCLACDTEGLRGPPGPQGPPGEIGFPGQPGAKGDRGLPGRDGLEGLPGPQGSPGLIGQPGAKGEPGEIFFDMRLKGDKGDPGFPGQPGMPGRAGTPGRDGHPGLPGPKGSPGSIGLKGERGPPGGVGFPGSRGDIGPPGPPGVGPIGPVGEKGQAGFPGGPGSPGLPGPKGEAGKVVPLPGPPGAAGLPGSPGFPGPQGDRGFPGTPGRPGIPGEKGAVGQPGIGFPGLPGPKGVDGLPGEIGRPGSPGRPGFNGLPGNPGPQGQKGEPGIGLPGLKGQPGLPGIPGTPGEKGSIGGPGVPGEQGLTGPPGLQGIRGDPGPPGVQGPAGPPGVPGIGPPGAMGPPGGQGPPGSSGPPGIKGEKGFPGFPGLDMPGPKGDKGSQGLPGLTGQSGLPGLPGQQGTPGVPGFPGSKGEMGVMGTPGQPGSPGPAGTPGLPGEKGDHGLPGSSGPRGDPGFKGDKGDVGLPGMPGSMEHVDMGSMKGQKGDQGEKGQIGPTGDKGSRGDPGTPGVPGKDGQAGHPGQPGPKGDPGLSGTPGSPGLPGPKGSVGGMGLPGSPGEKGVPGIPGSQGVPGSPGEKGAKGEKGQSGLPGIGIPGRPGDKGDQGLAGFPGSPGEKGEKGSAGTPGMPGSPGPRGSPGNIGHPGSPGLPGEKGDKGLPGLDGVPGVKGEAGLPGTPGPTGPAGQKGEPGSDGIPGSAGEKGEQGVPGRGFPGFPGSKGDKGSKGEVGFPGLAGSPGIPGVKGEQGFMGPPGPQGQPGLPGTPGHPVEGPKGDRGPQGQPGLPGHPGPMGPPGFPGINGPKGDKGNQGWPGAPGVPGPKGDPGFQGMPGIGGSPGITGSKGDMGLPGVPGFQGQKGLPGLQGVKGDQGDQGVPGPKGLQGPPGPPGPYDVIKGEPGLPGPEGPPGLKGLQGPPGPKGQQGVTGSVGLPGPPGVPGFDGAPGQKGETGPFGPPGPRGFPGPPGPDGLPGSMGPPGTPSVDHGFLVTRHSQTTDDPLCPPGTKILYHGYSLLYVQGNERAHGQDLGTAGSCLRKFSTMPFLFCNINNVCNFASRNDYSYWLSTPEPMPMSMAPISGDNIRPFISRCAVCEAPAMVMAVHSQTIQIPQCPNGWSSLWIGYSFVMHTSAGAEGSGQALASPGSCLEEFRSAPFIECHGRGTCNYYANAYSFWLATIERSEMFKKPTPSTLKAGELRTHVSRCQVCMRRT
T1 sequence (P08122 29-1707 limits assumed): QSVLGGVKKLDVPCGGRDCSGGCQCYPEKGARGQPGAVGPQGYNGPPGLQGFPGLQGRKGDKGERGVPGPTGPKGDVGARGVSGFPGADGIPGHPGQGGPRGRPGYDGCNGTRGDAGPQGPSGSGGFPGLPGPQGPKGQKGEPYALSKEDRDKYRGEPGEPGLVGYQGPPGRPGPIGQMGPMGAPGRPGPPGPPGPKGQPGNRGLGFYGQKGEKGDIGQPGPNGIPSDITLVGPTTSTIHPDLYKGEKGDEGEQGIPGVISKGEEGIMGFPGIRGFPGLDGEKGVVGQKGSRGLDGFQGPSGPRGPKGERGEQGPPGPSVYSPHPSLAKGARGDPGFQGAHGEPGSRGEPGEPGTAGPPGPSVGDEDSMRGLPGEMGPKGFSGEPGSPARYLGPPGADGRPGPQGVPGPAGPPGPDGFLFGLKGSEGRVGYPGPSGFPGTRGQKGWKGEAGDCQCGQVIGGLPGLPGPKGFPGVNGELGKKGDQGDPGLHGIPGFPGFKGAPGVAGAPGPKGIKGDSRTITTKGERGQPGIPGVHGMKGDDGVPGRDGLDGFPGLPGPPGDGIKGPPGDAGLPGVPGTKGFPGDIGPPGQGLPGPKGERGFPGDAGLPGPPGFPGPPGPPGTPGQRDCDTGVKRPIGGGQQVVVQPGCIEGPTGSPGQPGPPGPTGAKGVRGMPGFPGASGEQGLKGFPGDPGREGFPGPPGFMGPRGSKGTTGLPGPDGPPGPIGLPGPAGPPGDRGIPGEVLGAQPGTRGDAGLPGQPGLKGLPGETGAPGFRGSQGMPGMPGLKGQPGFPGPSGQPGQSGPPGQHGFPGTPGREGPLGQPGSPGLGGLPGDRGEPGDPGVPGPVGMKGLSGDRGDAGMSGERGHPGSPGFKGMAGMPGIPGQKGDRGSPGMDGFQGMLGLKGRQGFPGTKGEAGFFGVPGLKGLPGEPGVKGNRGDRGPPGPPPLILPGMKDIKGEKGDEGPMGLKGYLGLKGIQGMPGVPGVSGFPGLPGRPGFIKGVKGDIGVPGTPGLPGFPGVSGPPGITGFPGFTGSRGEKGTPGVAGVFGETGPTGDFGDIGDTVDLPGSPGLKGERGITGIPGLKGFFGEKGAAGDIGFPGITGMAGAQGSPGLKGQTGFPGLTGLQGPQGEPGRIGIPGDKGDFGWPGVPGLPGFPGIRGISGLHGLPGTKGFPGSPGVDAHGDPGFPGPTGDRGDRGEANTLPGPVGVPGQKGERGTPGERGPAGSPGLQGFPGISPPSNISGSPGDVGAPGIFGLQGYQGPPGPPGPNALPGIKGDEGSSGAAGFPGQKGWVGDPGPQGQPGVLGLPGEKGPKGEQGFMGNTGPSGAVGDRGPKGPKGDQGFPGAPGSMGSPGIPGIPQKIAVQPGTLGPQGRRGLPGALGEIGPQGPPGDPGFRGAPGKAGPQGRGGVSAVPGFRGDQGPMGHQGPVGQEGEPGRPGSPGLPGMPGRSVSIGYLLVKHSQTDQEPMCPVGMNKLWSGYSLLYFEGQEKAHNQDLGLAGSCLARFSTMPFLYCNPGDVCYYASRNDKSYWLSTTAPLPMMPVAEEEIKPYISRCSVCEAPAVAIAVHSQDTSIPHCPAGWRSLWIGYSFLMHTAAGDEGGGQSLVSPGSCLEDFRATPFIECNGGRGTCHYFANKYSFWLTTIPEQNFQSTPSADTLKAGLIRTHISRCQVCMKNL

As for GRGDSP [reference compound], the “Effect on endothelial cell adhesion to NC1 domain” value in assay [1] (up to 500 µg/ml inhibitor, NC1 coated 20 µg/ml, 60 min at 37C) is “did not have any effect”.

Consider “BSA: control coating protein [reference compound]”, for which the “Adhesion of added endothelial cells in spreading experiment” value in [2] (BSA substrate 5 µg/ml, all time intervals (30-90 min)) is reported as 1.7-2.2%.

For TAGSCLRKFSTM [peptide Hep-I], the Binding to heparin entry in assay [3] was “specifically bound heparin”. For the same substance, in assay [1] (1 µg (20 µg/ml) peptide, NC1 coated 20 µg/ml, 100% = no inhibitor, 60 min at 37C), the “Endothelial cell adhesion to NC1 domain” value was at most 20%. In addition, the “Inhibition of cell adhesion on NC1 domain substrates” value in assay [1] (substrates coated with NC1 domain (Discussion)) was ~ 80%. In addition, the “Spread cells, of attached endothelial cells” value is ~ 60% in [2] (setting [16]); 83% in assay [2] (60 min, peptide Hep-I substrate 20 µg/ml); 84% in [2] (90 min, peptide Hep-I substrate 20 µg/ml). Besides, the “Adhesion of murine melanoma cells” value in assay [4] was “also adhered”. Also, in assay [5], the “Competition of bound 125I-peptide by unlabeled corresponding peptide” value was “efficient competition”. For the same substance, the “Adhesion of microvascular endothelial cells” value in assay [6] was “also adhered”. Moreover, in assay [7], the “Competition for binding of 125I-Hep-I to endothelial cells” value is recorded as “efficiently competed”. Moreover, the “Maximal inhibition of adhesion to type IV collagen” value in [8] was ~ 50%. The “Nonspecific binding of the peptide to BSA, of total binding to type IV collagen” value in [9] is recorded as under 2%. In addition, the “Inhibition of the binding of heparin to type IV collagen” value in assay [10] is “dose-dependent manner”.

Take GDSRTITTKGERGQP [peptide ET-2]: the “Competition for binding of 125I-Hep-I to endothelial cells” value in assay [7] is reported as “failed to compete”.

For heparin, the “Effect on endothelial cell binding to type IV collagen” value in assay [11] is given as “unaffected”.

Consider “intact type IV collagen (EHS tumor) (complex)”, for which, in [12], the percent of the total type IV collagen in the lattice is 74%.

Regarding DPLCPPGTKIL [peptide 1], the “Competition of bound 125I-peptide by unlabeled corresponding peptide” value in assay [5] was “could not be competed”. Moreover, the “Nature of binding to type IV collagen” value in assay [5] (solid phase, 125I-peptide, pH 7.4) is on record as “this binding should not be specific”. Moreover, the “Additive effect on maximal turbidity” value in [13] was “did not have any additive effect”.

Take “type IV collagen: type IV collagen isolated from the EHS tumor, a murine tumor”: the Binding to heparin entry in assay [3] is “specifically bound heparin”. The “Preferential adhesion of aortic endothelial cells” value in assay [14] is “preferably adhered”. In assay [2] (setting [16]), the “Spread cells, of attached endothelial cells” value is given as ~ 92.8%. In addition, the “Adhesion of added endothelial cells” value in assay [15] (coated at 0.05 µg/well, ~5,000/well) was ~ 20%; in assay [15] (coated at 5 µg/well), ~ 40%.

On to MFKKPTPSTLKAGELR [peptide 4], for which, in assay [13], the “Additive effect on maximal turbidity” value was “did not have any additive effect”.
